From US20050245399A1, “Pyrazole derivatives as herbicidal compositions containing them” (ISHIHARA SANGYO KAISHA, LTD., priority 2004, published 2005)

Assays:
Format in all cases: in vivo
[1] = tested on: japanese bulrush (Scirpus juncoides: SCPJO); assay: Test Example 3 water application herbicidal activity (paddy), SCPJO; conditions: 63 g a.i./ha, water application under submerged condition at 0.5 leaf stage, visually observed 14th day after application; 0 = untreated control, 100 = complete kill
Method in brief: (§1)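 Flooded paddy-soil pots in greenhouse; ECHOR and SCPJO sown, SAGPY tubers planted a day later, compound applied into 3–4 cm water at weeds' 0.5-leaf stage. Rice transplanted at 2-leaf stage, treated day 4 after transplanting. Visual growth control 0–100% at 14 days (weeds) and 21 days (rice) after application.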

[2] = tested on: crabgrass (Digitaria sanguinalis L.), DIGSA; assay: Test Example 2 post-emergence (foliage treatment) herbicidal activity, DIGSA; conditions: 63 g a.i./ha
Method in brief: (§2)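 A small sprayer delivered the diluted WP or EC formulation (500 L/ha water, 0.1% v/v spreader) over emerged seedlings in upland soil pots. Damage relative to untreated plants was graded visually from 0 to 100% three weeks or so later (days 20-23).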

[3] = tested on: soybean (Glycine max Merr.), GLXMA; assay: Test Example 2 post-emergence (foliage treatment) herbicidal activity, GLXMA; conditions: 63 g a.i./ha
Method in brief: (§3)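 Foliar spray of formulated compound (500 L/ha dilution water, 0.1% v/v spreader) onto young potted plants at defined leaf stages. Scored 0-100% by visual inspection 20-23 d post-spray.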

[4] = tested on: barnyardgrass (Echinochloa crus-galli L.): ECHCG; assay: Test Example 1 pre-emergence herbicidal activity, ECHCG; conditions: Rate 63 g a.i./ha, visually observed 20th to 23rd day after application
Method in brief: (§4)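 Herbicidal effect in pre-emergence treatment: formulated compound sprayed at 500 L/ha water one day after sowing in upland field soil pots, with visual 0–100% growth-control scores recorded 20–23 days after application.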

[5] = tested on: green foxtail (Setaria viridis L.): SETVI; assay: Test Example 1 pre-emergence herbicidal activity, SETVI; conditions: Rate 63 g a.i./ha, visually observed 20th to 23rd day after application
Method in brief: as §4

[6] = tested on: barnyardgrass (Echinochloa crus-galli L.), ECHCG; assay: Test Example 2 post-emergence (foliage treatment) herbicidal activity, ECHCG; conditions: 63 g a.i./ha
Method in brief: as §2

[7] = tested on: rice (Oryza sativa L.): ORYSA; assay: Test Example 1 pre-emergence herbicidal activity, ORYSA; conditions: Rate 63 g a.i./ha, visually observed 20th to 23rd day after application
Method in brief: as §4

[8] = tested on: corn (Zea mays L.), ZEAMX; assay: Test Example 2 post-emergence (foliage treatment) herbicidal activity, ZEAMX; conditions: 63 g a.i./ha
Method in brief: as §3

[9] = tested on: wheat (Triticum aestivum L.): TRZAX; assay: Test Example 1 pre-emergence herbicidal activity, TRZAX; conditions: Rate 63 g a.i./ha, visually observed 20th to 23rd day after application
Method in brief: as §4

[10] = tested on: wheat (Triticum aestivum L.), TRZAX; assay: Test Example 2 post-emergence (foliage treatment) herbicidal activity, TRZAX; conditions: 63 g a.i./ha
Method in brief: as §3

[11] = tested on: redroot pigweed (Amaranthus retroflexus L.), AMARE; assay: Test Example 2 post-emergence (foliage treatment) herbicidal activity, AMARE; conditions: 63 g a.i./ha
Method in brief: as §2

[12] = tested on: prickly sida (Sida spinosa L.), SIDSP; assay: Test Example 2 post-emergence (foliage treatment) herbicidal activity, SIDSP; conditions: 63 g a.i./ha
Method in brief: as §3

[13] = tested on: rice (Oryza sativa L.: ORYSA); assay: Test Example 3 water application herbicidal activity (paddy), transplanted rice ORYSA; conditions: 63 g a.i./ha, water application 4th day after transplantation of 2 leaf stage rice, visually observed 21st day after application; 0 = untreated control, 100 = complete kill
Method in brief: as §1

[14] = tested on: rice (Oryza sativa L.), ORYSA; assay: Test Example 2 post-emergence (foliage treatment) herbicidal activity, ORYSA; conditions: 63 g a.i./ha
Method in brief: as §2

[15] = tested on: corn (Zea mays L.): ZEAMX; assay: Test Example 1 pre-emergence herbicidal activity, ZEAMX; conditions: Rate 63 g a.i./ha, visually observed 20th to 23rd day after application
Method in brief: as §4

[16] = tested on: velvetleaf (Abutilon theophrasti), ABUTH; assay: Test Example 2 post-emergence (foliage treatment) herbicidal activity, ABUTH; conditions: 63 g a.i./ha
Method in brief: as §3

[17] = tested on: crabgrass (Digitaria sanguinalis L.): DIGSA; assay: Test Example 1 pre-emergence herbicidal activity, DIGSA; conditions: Rate 63 g a.i./ha, visually observed 20th to 23rd day after application
Method in brief: as §4

[18] = tested on: redroot pigweed (Amaranthus retroflexus L.): AMARE; assay: Test Example 1 pre-emergence herbicidal activity, AMARE; conditions: Rate 63 g a.i./ha, visually observed 20th to 23rd day after application
Method in brief: as §4

[19] = tested on: japanese ribbon wapato (Sagittaria pygmaea: SA GPY); assay: Test Example 3 water application herbicidal activity (paddy), SAGPY; conditions: 63 g a.i./ha, water application under submerged condition, tubers planted, visually observed 14th day after application; 0 = untreated control, 100 = complete kill
Method in brief: as §1

[20] = tested on: velvetleaf (Abutilon theophrasti): ABUTH; assay: Test Example 1 pre-emergence herbicidal activity, ABUTH; conditions: Rate 63 g a.i./ha, visually observed 20th to 23rd day after application
Method in brief: as §4

[21] = tested on: green foxtail (Setaria viridis L.), SETVI; assay: Test Example 2 post-emergence (foliage treatment) herbicidal activity, SETVI; conditions: 63 g a.i./ha
Method in brief: as §3

[22] = tested on: soybean (Glycine max Merr.): GLXMA; assay: Test Example 1 pre-emergence herbicidal activity, GLXMA; conditions: Rate 63 g a.i./ha, visually observed 20th to 23rd day after application
Method in brief: as §4

[23] = tested on: prickly sida (Sida spinosa L.): SEDSP; assay: Test Example 1 pre-emergence herbicidal activity, SIDSP; conditions: Rate 63 g a.i./ha, visually observed 20th to 23rd day after application
Method in brief: as §4

[24] = tested on: barnyardgrass (Echinochiloa oryzicola: ECHOR); assay: Test Example 3 water application herbicidal activity (paddy), ECHOR; conditions: 63 g a.i./ha, water application under submerged condition at 0.5 leaf stage, visually observed 14th day after application; 0 = untreated control, 100 = complete kill
Method in brief: as §1

| SMILES | growth controlling degrees (%) SCPJO [1] [%] | growth controlling degree, DIGSP [2] [%] | growth controlling degree, GLXMA [3] [%] | Pre-emergence Herbicidal Activity ECHCG (growth controlling degree) [4] [%] | Pre-emergence Herbicidal Activity SETVI (growth controlling degree) [5] [%] | growth controlling degree, ECHCO [6] [%] | Pre-emergence Herbicidal Activity ORYSA (growth controlling degree) [7] [%] | growth controlling degree, ZEAMX [8] [%] | Pre-emergence Herbicidal Activity TRZAX (growth controlling degree) [9] [%] | growth controlling degree, TRZAX [10] [%] | growth controlling degree, AMARE [11] [%] | growth controlling degree, SIDSP [12] [%] | growth controlling degrees (%) ORYSA [13] [%] | growth controlling degree, ORYSA [14] [%] | Pre-emergence Herbicidal Activity ZEAMX (growth controlling degree) [15] [%] | growth controlling degree, ABUTH [16] [%] | Pre-emergence Herbicidal Activity DIGSP (growth controlling degree) [17] [%] | Pre-emergence Herbicidal Activity AMARE (growth controlling degree) [18] [%] | growth controlling degrees (%) SAGPY [19] [%] | Pre-emergence Herbicidal Activity ABUTH (growth controlling degree) [20] [%] | also measured |
| --- | --- | --- | --- | --- | --- | --- | --- | --- | --- | --- | --- | --- | --- | --- | --- | --- | --- | --- | --- | --- | --- |
| COc1c(Cl)cc(F)c(-c2nn(C)c(OC(F)F)c2Cl)c1NC(=O)c1ccccc1C [Compound 1-24] | 80 | 98 | 100 | 95 | 100 | 100 | 60 | 90 | 20 | 50 | 100 | 100 | 60 | 98 | 10 | 100 | 100 | 100 | 90 | 100 | growth controlling degree, SETVI [21]: 100%; Pre-emergence Herbicidal Activity GLXMA (growth controlling degree) [22]: 10%; Pre-emergence Herbicidal Activity SIDSP (growth controlling degree) [23]: 100%; growth controlling degrees (%) ECHOR [24]: 100% |
| COc1c(Cl)cc(F)c(-c2nn(C)c(OC(F)F)c2Cl)c1NC(=O)c1ccccc1C(F)(F)F [Compound 1-25] | 95 | 100 | 98 | 60 | 95 | 98 | 40 | 90 | 0 | 40 | 100 | 100 | 60 | 90 | 0 | 100 | 98 | 100 | 100 | 100 | growth controlling degree, SETVI [21]: 100%; Pre-emergence Herbicidal Activity GLXMA (growth controlling degree) [22]: 0%; Pre-emergence Herbicidal Activity SIDSP (growth controlling degree) [23]: 100%; growth controlling degrees (%) ECHOR [24]: 98% |
| COc1c(Cl)cc(F)c(-c2nn(C)c(OC(F)F)c2Cl)c1NC(=O)c1cccc(Cl)c1 [Compound 1-26] | 70 | 60 | 70 | 70 | 100 | 95 | 30 | 40 | 10 | 30 | 100 | 100 | 60 | 80 | 10 | 100 | 98 | 100 | 100 | 100 | growth controlling degree, SETVI [21]: 100%; Pre-emergence Herbicidal Activity GLXMA (growth controlling degree) [22]: 10%; Pre-emergence Herbicidal Activity SIDSP (growth controlling degree) [23]: 70%; growth controlling degrees (%) ECHOR [24]: 100% |
| COc1c(Cl)cc(F)c(-c2nn(C)c(OC(F)F)c2Cl)c1NC(=O)c1cccc(Br)c1 [Compound 1-27] | 70 | 100 | 70 | 30 | 80 | 100 | 20 | 60 | 0 | 30 | 100 | 70 | 50 | 80 | 0 | 100 | 100 | 100 | 98 | 70 | growth controlling degree, SETVI [21]: 100%; Pre-emergence Herbicidal Activity GLXMA (growth controlling degree) [22]: 20%; Pre-emergence Herbicidal Activity SIDSP (growth controlling degree) [23]: 80%; growth controlling degrees (%) ECHOR [24]: 100% |
